Columns and labels:
[1] = system: col5a1; test: RT-PCR of col5a1 mRNA isoforms after Vivo-Morpholino injection; type: in vivo, zebrafish; details: serial intra-abdominal injection, 80 ng/mg vMO
Procedure: Zebrafish qRT-PCR. RNA extraction, PCR and quantitative RT-PCR (qRT-PCR) was performed as previously described using total RNA from dissected whole VAT tissue of 10 mm zebrafish. (Rawls J F, et al. (2007), PNAS 104(18):7622-7627.) VAT and SAT were dissected from adult Ekkwill strain wild-type zebrafish and used to assess plxnd1 mRNA levels (FIG. 18(B)). Samples contained 5-8 siblings or mutants per group, and qRT-PCR was ran with three biological replicate groups, and reactions ran in triplicate.
Zebrafish were raised under normal conditions until 30-50 days post fertilisation. Fish were anesthetised in 0.67 g/L MS222 and SL measured using an eyepiece reticle. Intra-abdominal injections were then performed on a Nanoject II injector (Drummond) as previously described. (McMenamin S K, et al (2013), Endocrinology 154(4):1476-1487.) At each injection, dosage was adjusted according to body weight (mg) using the following equation: mg=−48.10+7.36*SL+0.68*(SL-8.94)^2. (McMenamin S K, et al (2013), Endocrinology 154(4):1476-1487.) Concentration of individual compounds at injection were (relative to volume/mass of fish): 80 ng/mg col5a1-ile2 vMO (5′-[…]-3′; SEQ ID NO.: 55) or col5a1-e3i3 vMO (5′-[…]-3′; SEQ ID NO.: 56) (Gene-Tools, LLC), 100 μM EDHB (Sigma) and 80 ng/mg EdU. Control animals were injected with either a standard control vMO (5′-[…]-3′; SEQ ID NO.: 57) (Gene-Tools) or 0.1% DMSO.

[2] = Turbidity assay of ECM extracted from VAT (in vitro fibrillogenesis); set-up: species or system zebrafish; details: ECM of sibling VAT, vMO injected before extraction
Description: To assess fibrillogenesis in plxnd1 mutant VAT, ECM is extracted from zebrafish VAT, and fibril polymerization and gel formation is induced in vitro (FIG. 13). Turbidity assays are used to determine the rate and ultimate extent of fibrillogenesis. ECM was purified from dissected zebrafish VAT (˜100 VATS per tube, triplicate tubes per condition) as previously described. (Uriel S, et al. (2009), Tissue engineering. Part C, Methods 15(3):309-321.) Urea extraction was allowed to proceed for 14-21 days at 4° C. Protein concentration (˜7 mg/ml) was assessed by the Bradford assay (Thermo Scientific). […] To induce fibril polymerization and gel formation, acetic acid was added to a pH of 7. Turbidity assays were conducted as previously described using a Spectronic 20D+ spectrometer (Thermo Scientific). (Wood G C & Keech M K (1960), The Biochemical journal 75:588-598.)

[3] = system: Type V collagen (Col5); test: Col5 immunofluorescence in VAT after vMO injection; type: in vivo, zebrafish; details: endothelial cell and peri-adipocyte locations
Procedure: Immunohistochemistry was performed as previously described (Kanther M, et al. (2011), Gastroenterology 141(1):197-207.) Immunohistochemistry was conducted with antibodies to Type V collagen (Col5) (Rockland, #600-401-107S), Laminin (Sigma, #L-9393), WCL15 (Romano N, et al. (1998), Anatomy and embryology 198(1):31-41; van der Sar A M, et al. (2004), Trends in microbiology 12(10):451-457), and Alexa 568 (Invitrogen, #A-1 1011). Transmission electron microscopy was carried out as described previously. (Flynn E J, et al. (2009), Journal of lipid research 50(8):1641-1652.) Whole 10-12 mm SL fish were processed for paraffin sectioning and Masson's trichrome, combined Masson's and Elastin, periodic acid Schiff (PAS) and Alcian Blue stains. (Sabaliauskas N A, et al. (2006), Methods 39(3):246-254.)
Zebrafish were raised under normal conditions until 30-50 days post fertilisation. Fish were anesthetised in 0.67 g/L MS222 and SL measured using an eyepiece reticle. Intra-abdominal injections were then performed on a Nanoject II injector (Drummond) as previously described. (McMenamin S K, et al (2013), Endocrinology 154(4):1476-1487.) At each injection, dosage was adjusted according to body weight (mg) using the following equation: mg=−48.10+7.36*SL+0.68*(SL-8.94)^2. […]

Substance	splicing of col5a1 (RT-PCR, mRNA isoform) [1]	in vitro fibrillogenesis [2]	Col5 protein levels (Col5 reactivity) [3]
col5a1-e3i3 vMO: Vivo-Morpholino 5′-GAGTTCCTACTTACCTCAAACACCT-3′ (SEQ ID NO.: 56) targeting zebrafish col5a1 exon 3-intron 3 boundary (all phosphorodiamidate morpholino (PMO); Vivo-Morpholino, delivery moiety not given here, further chemistry not fully specified)	skipping of exon 3	–	–
col5a1-ile2 vMO: Vivo-Morpholino 5′-GAAACATGGATGCTACAGAGAGAGA-3′ (SEQ ID NO.: 55) targeting zebrafish col5a1 intron 1-exon 2 boundary (all phosphorodiamidate morpholino (PMO); Vivo-Morpholino, delivery moiety not given here, further chemistry not fully specified)	inclusion of part of intron 1	did not affect	significantly reduced
